Assay results: PubChem BioAssay (NCI)
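GI50 marks 50% less growth. TGI denotes the concentration required for complete inhibition of growth.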

Key:
Test in all cases: NCI tumour cell line growth inhibition, 384-well format
786-0 renal = test system: 786-0 renal
A498 renal = test system: A498 renal
A549 NSCLC = test system: A549 NSCLC
ACHN renal = test system: ACHN renal
BT-549 breast = test system: BT-549 breast
CAKI-1 renal = test system: CAKI-1 renal
CCRF-CEM leukemia = test system: CCRF-CEM leukemia
COLO 205 colon = test system: COLO 205 colon
DU-145 prostate = test system: DU-145 prostate
EKVX NSCLC = test system: EKVX NSCLC
HCC-2998 colon = test system: HCC-2998 colon
HCT-116 colon = test system: HCT-116 colon
HCT-15 colon = test system: HCT-15 colon
HL-60(TB) leukemia = test system: HL-60(TB) leukemia
HOP-62 NSCLC = test system: HOP-62 NSCLC
HOP-92 NSCLC = test system: HOP-92 NSCLC
HS 578T breast = test system: HS 578T breast
HT29 colon = test system: HT29 colon
IGROV1 ovarian = test system: IGROV1 ovarian
K-562 leukemia = test system: K-562 leukemia
KM12 colon = test system: KM12 colon
LOX IMVI melanoma = test system: LOX IMVI melanoma
M14 melanoma = test system: M14 melanoma
MALME-3M melanoma = test system: MALME-3M melanoma
MCF7 breast = test system: MCF7 breast
MDA-MB-231 breast = test system: MDA-MB-231 breast
MDA-MB-435 melanoma = test system: MDA-MB-435 melanoma
MDA-MB-468 breast = test system: MDA-MB-468 breast
MOLT-4 leukemia = test system: MOLT-4 leukemia
NCI-H226 lung = test system: NCI-H226 lung
NCI-H23 lung = test system: NCI-H23 lung
NCI-H322M lung = test system: NCI-H322M lung
NCI-H460 NSCLC = test system: NCI-H460 NSCLC
NCI-H522 lung = test system: NCI-H522 lung
NCI/ADR-RES ovarian = test system: NCI/ADR-RES ovarian
OVCAR-3 ovarian = test system: OVCAR-3 ovarian
OVCAR-4 ovarian = test system: OVCAR-4 ovarian
OVCAR-5 ovarian = test system: OVCAR-5 ovarian
OVCAR-8 ovarian = test system: OVCAR-8 ovarian
PC-3 prostate = test system: PC-3 prostate
RPMI-8226 leukemia = test system: RPMI-8226 leukemia
RXF 393 renal = test system: RXF 393 renal
SF-268 CNS = test system: SF-268 CNS
SF-295 CNS = test system: SF-295 CNS
SF-539 CNS = test system: SF-539 CNS
SK-MEL-28 melanoma = test system: SK-MEL-28 melanoma
SK-MEL-5 melanoma = test system: SK-MEL-5 melanoma
SK-OV-3 ovarian = test system: SK-OV-3 ovarian
SN12C renal = test system: SN12C renal
SNB-19 CNS = test system: SNB-19 CNS
SNB-75 CNS = test system: SNB-75 CNS
SW-620 colon = test system: SW-620 colon
T-47D breast = test system: T-47D breast
TK-10 renal = test system: TK-10 renal
U251 glioblastoma = test system: U251 glioblastoma
UACC-257 melanoma = test system: UACC-257 melanoma
UACC-62 melanoma = test system: UACC-62 melanoma
UO-31 renal = test system: UO-31 renal

In the case of `CC[C@H](C)n1cc(C)c2c(C(=O)NCc3c(C)cc(C)[nH]c3=O)cc(-c3ccc(N4CCNCC4)nc3)cc21`, the GI50 ([…]-0 renal) is reported as 1.71 µM, the TGI (786-0 renal) is reported as 3.1 µM and the GI50 (A498 renal) is reported as 1.94 µM. It also gave a TGI (A498 renal) of 3.43 µM, a GI50 (A549 NSCLC) of 1.96 µM and a TGI (A549 NSCLC) of 3.92 µM. It also gave a GI50 (ACHN renal) of 4.23 µM, a TGI (ACHN renal) of 15.6 µM and a GI50 (BT-549 breast) of 1.67 µM. For the same molecule, the TGI (BT-549 breast) was 3.05 µM, the GI50 (CAKI-1 renal) was 1.76 µM and the TGI (CAKI-1 renal) was 3.17 µM. For the same molecule, the GI50 (CCRF-CEM leukemia) was 1.53 µM, the TGI (CCRF-CEM leukemia) was 2.87 µM and the GI50 (COLO 205 colon) was 1.71 µM. The TGI (COLO 205 colon) was 3.1 µM, the GI50 (DU-145 prostate) was 3.83 µM and the TGI (DU-145 prostate) was 12.1 µM. The GI50 (EKVX NSCLC) was 1.83 µM, the TGI (EKVX NSCLC) was 3.49 µM and the GI50 (HCC-2998 colon) was 1.6 µM. It also gave a TGI (HCC-2998 colon) of 2.98 µM, a GI50 (HCT-116 colon) of 1.79 µM and a TGI (HCT-116 colon) of 3.23 µM. For the same molecule, the GI50 (HCT-15 colon) was 1.86 µM, the TGI (HCT-15 colon) was 3.48 µM and the GI50 (HL-60(TB) leukemia) was 2.03 µM. The TGI (HL-60(TB) leukemia) was 3.47 µM, the GI50 (HOP-62 NSCLC) was 1.64 µM and the TGI (HOP-62 NSCLC) was 3.02 µM. It also gave a GI50 (HOP-92 NSCLC) of 1.83 µM, a TGI (HOP-92 NSCLC) of 3.25 µM and a GI50 (HS 578T breast) of 1.41 µM. It also gave a TGI (HS 578T breast) of 2.71 µM, a GI50 (HT29 colon) of 1.68 µM and a TGI (HT29 colon) of 3.11 µM. For the same molecule, the GI50 (IGROV1 ovarian) was 1.54 µM, the TGI (IGROV1 ovarian) was 3.67 µM and the GI50 (K-562 leukemia) was 1.48 µM. It also gave a TGI (K-562 leukemia) of 2.81 µM, a GI50 (KM12 colon) of 1.79 µM and a TGI (KM12 colon) of 3.32 µM. The GI50 (LOX IMVI melanoma) was 1.64 µM, the TGI (LOX IMVI melanoma) was 3.02 µM and the GI50 (M14 melanoma) was 1.75 µM. The TGI (M14 melanoma) was 3.14 µM, the GI50 (MALME-3M melanoma) was 1.61 µM and the TGI (MALME-3M melanoma) was 2.97 µM. For the same molecule, the GI50 (MCF7 breast) was 1.52 µM, the TGI (MCF7 breast) was 2.89 µM and the GI50 (MDA-MB-231 breast) was 1.65 µM. For the same molecule, the TGI (MDA-MB-231 breast) was 3.06 µM, the GI50 (MDA-MB-435 melanoma) was 2.07 µM and the TGI (MDA-MB-435 melanoma) was 3.52 µM. For the same molecule, the GI50 (MDA-MB-468 breast) was 1.46 µM, the TGI (MDA-MB-468 breast) was 2.79 µM and the GI50 (MOLT-4 leukemia) was 1.63 µM. The TGI (MOLT-4 leukemia) was 2.99 µM, the GI50 (NCI-H226 lung) was 3.76 µM and the TGI (NCI-H226 lung) was 14.5 µM. For the same molecule, the GI50 (NCI-H23 lung) was 2.89 µM, the TGI (NCI-H23 lung) was 7.44 µM and the GI50 (NCI-H322M lung) was 1.96 µM. The TGI (NCI-H322M lung) was 4.07 µM, the GI50 (NCI-H460 NSCLC) was 1.83 µM and the TGI (NCI-H460 NSCLC) was 3.24 µM. The GI50 (NCI-H522 lung) was 1.86 µM, the TGI (NCI-H522 lung) was 3.27 µM and the GI50 (NCI/ADR-RES ovarian) was 17.7 µM. For the same molecule, the TGI (NCI/ADR-RES ovarian) was 31.6 µM, the GI50 (OVCAR-3 ovarian) was 2.25 µM and the TGI (OVCAR-3 ovarian) was 4.39 µM. For the same molecule, the GI50 (OVCAR-4 ovarian) was 3.58 µM, the TGI (OVCAR-4 ovarian) was 10.8 µM and the GI50 (OVCAR-5 ovarian) was 2.62 µM. It also gave a TGI (OVCAR-5 ovarian) of 6.44 µM, a GI50 (OVCAR-8 ovarian) of 1.81 µM and a TGI (OVCAR-8 ovarian) of 3.34 µM. For the same molecule, the GI50 (PC-3 prostate) was 3.23 µM, the TGI (PC-3 prostate) was 8.54 µM and the GI50 (RPMI-8226 leukemia) was 1.39 µM. The TGI (RPMI-8226 leukemia) was 2.7 µM, the GI50 (RXF 393 renal) was 1.73 µM and the TGI (RXF 393 renal) was 3.14 µM. It also gave a GI50 (SF-268 CNS) of 1.62 µM, a TGI (SF-268 CNS) of 2.98 µM and a GI50 (SF-295 CNS) of 1.87 µM. The TGI (SF-295 CNS) was 3.32 µM, the GI50 (SF-539 CNS) was 1.6 µM and the TGI (SF-539 CNS) was 2.96 µM. It also gave a GI50 (SK-MEL-28 melanoma) of 2.15 µM, a TGI (SK-MEL-28 melanoma) of 3.6 µM and a GI50 (SK-MEL-5 melanoma) of 1.63 µM. The TGI (SK-MEL-5 melanoma) was 2.99 µM, the GI50 (SK-OV-3 ovarian) was 1.86 µM and the TGI (SK-OV-3 ovarian) was 3.3 µM. It also gave a GI50 (SN12C renal) of 1.78 µM, a TGI (SN12C renal) of 3.49 µM and a GI50 (SNB-19 CNS) of 2.11 µM. The TGI (SNB-19 CNS) was 3.75 µM, the GI50 (SNB-75 CNS) was 1.35 µM and the TGI (SNB-75 CNS) was 2.65 µM. For the same molecule, the GI50 (SW-620 colon) was 1.74 µM, the TGI (SW-620 colon) was 3.12 µM and the GI50 (T-47D breast) was 1.47 µM. The TGI (T-47D breast) was 2.82 µM, the GI50 (TK-10 renal) was 1.91 µM and the TGI (TK-10 renal) was 3.64 µM. The GI50 (U251 glioblastoma) was 1.83 µM, the TGI (U251 glioblastoma) was 3.25 µM and the GI50 (UACC-257 melanoma) was 1.63 µM. It also gave a TGI (UACC-257 melanoma) of 2.99 µM, a GI50 (UACC-62 melanoma) of 1.57 µM and a TGI (UACC-62 melanoma) of 2.92 µM. For the same molecule, the GI50 (UO-31 renal) was 13.1 µM and the TGI (UO-31 renal) was 25.8 µM.
